Data: US9694016B2 (Novartis AG, priority 2013, dated 2017)
Where two headings read alike, the source gives them in different places. Values belong to the molecule of their own block, whether it stands above or below them.

Biological target: b-Raf (V600E) (Homo sapiens (Human), UniProt P15056, V600E)
Details: read-out: b-Raf IC-50, AlphaScreen
[1] = 60 min pre-incubation, 3 hours reaction
[2] = 60 min pre-incubation, reaction 3 hours at room temperature

b-Raf (V600E), sequence (P15056 whole entry V600E): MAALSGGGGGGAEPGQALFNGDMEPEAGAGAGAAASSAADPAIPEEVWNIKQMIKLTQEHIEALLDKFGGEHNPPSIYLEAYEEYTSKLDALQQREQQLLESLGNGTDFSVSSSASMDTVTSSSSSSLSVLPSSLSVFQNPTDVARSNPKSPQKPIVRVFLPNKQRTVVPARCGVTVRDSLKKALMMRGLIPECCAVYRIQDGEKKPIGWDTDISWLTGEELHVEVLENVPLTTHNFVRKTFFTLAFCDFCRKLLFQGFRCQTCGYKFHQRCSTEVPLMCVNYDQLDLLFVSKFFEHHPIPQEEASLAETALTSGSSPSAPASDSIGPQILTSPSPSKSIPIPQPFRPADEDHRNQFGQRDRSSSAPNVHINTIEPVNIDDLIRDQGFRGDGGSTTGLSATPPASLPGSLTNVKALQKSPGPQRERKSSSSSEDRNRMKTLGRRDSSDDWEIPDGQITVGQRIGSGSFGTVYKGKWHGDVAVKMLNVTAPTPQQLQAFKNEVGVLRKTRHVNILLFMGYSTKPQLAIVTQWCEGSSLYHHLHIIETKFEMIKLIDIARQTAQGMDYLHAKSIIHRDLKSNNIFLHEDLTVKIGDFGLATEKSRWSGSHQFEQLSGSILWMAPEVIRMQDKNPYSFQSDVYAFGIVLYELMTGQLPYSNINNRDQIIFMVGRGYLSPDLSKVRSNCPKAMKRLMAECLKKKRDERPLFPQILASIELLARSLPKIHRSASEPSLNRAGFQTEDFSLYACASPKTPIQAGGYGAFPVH

IC50 [2]: 8.59 nM
Structure (SMILES): Cc1ncc(NC(=O)c2ccnc(C(C)(C)F)c2)cc1-c1cc(N2CCOCC2)nc(N2CC(C)(O)C2)c1 [Example 1106, 2-(2-fluoropropan-2-yl)-N-(2′-(3-hydroxy-3-methylazetidin-1-yl)-2-methyl-6′-morpholino-[3,4′-bipyridin]-5-yl)isonicotinamide]

IC50 [2]: 1.12 nM
Structure (SMILES): Cc1ccc(NC(=O)c2cc(C(F)(F)F)ccn2)cc1-c1cc(OCCO)nc(N2CCOCC2)c1 [Example 1163, N-(3-(2-(2-hydroxyethoxy)-6-morpholinopyridin-4-yl)-4-methylphenyl)-4-(trifluoromethyl)picolinamide]

IC50 [1]: 5.4 nM
Structure (SMILES): Cc1ccc(NC(=O)c2ccnc(C(C)(C)C#N)c2)cc1-c1cc(N2CCOCC2)c(=O)n(C)n1 [Example 640, 2-(2-cyanopropan-2-yl)-N-(4-methyl-3-(1-methyl-5-morpholino-6-oxo-1,6-dihydropyridazin-3-yl)phenyl)isonicotinamide]

IC50 (Table 2, 3 hours reaction): 3.6 nM
Structure (SMILES): Cc1ncc(NC(=O)c2cccc(C(F)F)c2)cc1-c1cc(N2CCOCC2)c(=O)n(C)c1 [Example 394, 3-(difluoromethyl)-N-(1′,2-dimethyl-5′-morpholino-6′-oxo-1′,6′-dihydro-[3,3′-bipyridin]-5-yl)benzamide]

IC50 (Table 2, 3 hours reaction): 4 nM
Structure (SMILES): COCCOc1ncc(-c2cc(NC(=O)c3cccc(C(F)(F)F)c3)cnc2C)cc1N1CCOCC1 [Example 312, N-(6′-(2-methoxyethoxy)-2-methyl-5′-morpholino-[3,3′-bipyridin]-5-yl)-3-(trifluoromethyl)benzamide]

IC50 (Table 2, 3 hours reaction): 3100 nM
Structure (SMILES): Cn1cc(-c2cc(NC(=O)c3cccc(C(F)(F)F)c3)ccc2C#N)cc(N2CCOCC2)c1=O [Example 411, N-(4-cyano-3-(1-methyl-5-morpholino-6-oxo-1,6-dihydropyridin-3-yl)phenyl)-3-(trifluoromethyl)benzamide]

IC50 (Table 2, 3 hours reaction): 2 nM
Structure (SMILES): Cn1cc(-c2cc(NC(=O)c3cccc(C(F)(F)F)c3)ccc2F)cc(N2CCOCC2)c1=O [Example 410]

Continued, molecule first:

Structure (SMILES): Cc1ccc(NC(=O)c2cc(CN(C)C)cc(C(F)(F)F)c2)cc1-c1cc(N2CCOCC2)n(C)c(=O)c1 [Example 497, 3-((dimethylamino)methyl)-N-(4-methyl-3-(1-methyl-6-morpholino-2-oxo-1,2-dihydropyridin-4-yl)phenyl)-5-(trifluoromethyl)benzamide]
IC50 [1]: 2.8 nM

Structure (SMILES): Cc1ncc(NC(=O)c2ccnc(C(C)C)c2)cc1-c1ccc(C#N)c(N2CCOCC2)c1 [Example 686, N-(5-(4-cyano-3-morpholinophenyl)-6-methylpyridin-3-yl)-2-isopropylisonicotinamide]
IC50 [1]: 1.7 nM

Structure (SMILES): CCC(F)(F)c1cc(C(=O)Nc2ccc(C)c(-c3cc(N4CCOCC4)c(S(C)(=O)=O)nn3)c2)ccn1 [Example 926, 2-(1,1-difluoropropyl)-N-(4-methyl-3-(6-(methylsulfonyl)-5-morpholinopyridazin-3-yl)phenyl)isonicotinamide]
IC50 [2]: 2.13 nM

Structure (SMILES): Cc1ncc(NC(=O)c2ccnc(C(C)(C)C#N)c2)cc1-c1cc(N2CCOCC2)nc(N2CCOCC2)c1 [Example 1123, 2-(2-cyanopropan-2-yl)-N-(2-methyl-2′,6′-dimorpholino-[3,4′-bipyridin]-5-yl)isonicotinamide]
IC50 [2]: 10.8 nM

Structure (SMILES): Cc1ncc(NC(=O)c2cc(C(C)(C)C#N)ccn2)cc1-c1cnc(OC2CCOCC2)c(N2CCOCC2)c1 [Example 943, 4-(2-cyanopropan-2-yl)-N-(2-methyl-5′-morpholino-6′-((tetrahydro-2H-pyran-4-yl)oxy)-[3,3′-bipyridin]-5-yl)picolinamide]
IC50 [2]: 9.51 nM

Structure (SMILES): CCn1cc(C(=O)Nc2cnc(C)c(-c3cc(N4CCOCC4)nc(N4CCOCC4)c3)c2)cc(C(F)(F)F)c1=O [Example 1125, 1-ethyl-N-(2-methyl-2′,6′-dimorpholino-[3,4′-bipyridin]-5-yl)-6-oxo-5-(trifluoromethyl)-1,6-dihydropyridine-3-carboxamide]
IC50 [2]: 10 nM

Structure (SMILES): Cc1ccc(NC(=O)c2ccnc(C3(C#N)CC3)c2)cc1-c1cc(N2CCOCC2)c(=O)n(C)n1 [Example 659, 2-(1-cyanocyclopropyl)-N-(4-methyl-3-(1-methyl-5-morpholino-6-oxo-1,6-dihydropyridazin-3-yl)phenyl)isonicotinamide]
IC50 [1]: 0.7 nM
